In ChEMBL document CHEMBL4665715, “Thienochromene derivatives inhibit pSTAT1 and pSTAT5 signaling induced by cytokines” (Bioorg Med Chem Lett, 2020):
Calls of active or inactive are those of the source. The rule behind the calls is not given here.

Key:
Format in all cases: tissue-based
Janus Kinase (JAK) [1] = target: T1, Janus Kinase (JAK) (Homo sapiens, UniProt P52333+P23458+O60674+P29597); assay: Inhibition of JAK in human PBMC assessed as inhibition of IFNalpha-induced STAT1 phosphorylation preincubated for 30 mins followed by addition […] stimulation and measured after 30 mins by ELISA
Janus Kinase (JAK) [2] = target: T1, Janus Kinase (JAK); assay: Inhibition of JAK in human PBMC assessed as inhibition of IL2-induced STAT5 phosphorylation preincubated for 30 mins followed by addition IL2 stimulation and measured after 30 mins by ELISA
Janus Kinase (JAK) [3] = target: T1, Janus Kinase (JAK); assay: Inhibition of JAK in human PBMC assessed as inhibition of GM-CSF-induced STAT5 phosphorylation at 150 uM preincubated for 30 mins followed by addition […] stimulation and measured after 30 mins by ELISA
Janus Kinase (JAK) [4] = target: T1, Janus Kinase (JAK); assay: Inhibition of JAK in human PBMC assessed as inhibition of IL2-induced STAT5 phosphorylation at 150 uM preincubated for 30 mins followed by addition IL2 stimulation and measured after 30 mins by ELISA
Janus Kinase (JAK) [5] = target: T1, Janus Kinase (JAK); assay: Inhibition of JAK in human PBMC assessed as inhibition of IFNalpha-induced STAT1 phosphorylation at 150 uM preincubated for 30 mins followed by addition […] stimulation and measured after 30 mins by ELISA
Janus Kinase (JAK) [6] = target: T1, Janus Kinase (JAK); assay: Inhibition of JAK in human PBMC assessed as inhibition of GM-CSF-induced STAT5 phosphorylation preincubated for 30 mins followed by addition […] stimulation and measured after 30 mins by ELISA

Question: For `CCOC(=O)c1cc2c(=O)oc3cc(O)ccc3c2s1`, which IC50 (Janus Kinase (JAK) [1]) is on record?
Answer: 11.9 µM

Question: And the IC50 (Janus Kinase (JAK) [2])?
Answer: 12.1 µM

Question: What about the inhibition (Janus Kinase (JAK) [3]) of the same compound?
Answer: Active

Question: And the inhibition (Janus Kinase (JAK) [4])?
Answer: Active

Question: What about the inhibition (Janus Kinase (JAK) [5]) of the same compound?
Answer: Active

Question: And the IC50 (Janus Kinase (JAK) [6])?
Answer: 5 µM
